{"source": "patent US9253983B2", "about": "“Triazole compound and use thereof” (KUREHA CORPORATION, priority 2011, dated 2016)", "key": {"Ustilago nuda": {"test_system": "Ustilago nuda", "assay": "Test 2 for antifungal effect, plate medium: U.n", "format": "cell-based", "details": "PDA plate medium", "experimental": "(§1) Compound (1-1b) or Compound (1-2b) was dissolved in dimethyl sulfoxide, and the resulting solution was added to a PDA medium (potato dextrose-agar medium) at about 60° C. The medium and the solution were mixed thoroughly in a conical flask, poured into a petri dish, and allowed to solidify. In this way, a plate medium containing Compound (1-1b) or Compound (1-2b) at a certain concentration was prepared.\n(§2) Meanwhile, test microorganisms cultured on a plate medium in advance were cut out with the use of a cork borer 4 mm in diameter, and were inoculated onto the compound-containing plate medium. After the inoculation, the pathogens were cultured at their optimum growth temperatures (for example, refer to LIST OF CULTURES 1996 microorganisms 10th edition, Institute for Fermentation (foundation)) for 1 day to 7 days, and their growth was determined by measuring the diameter of their flora. The extent of growth of the pathogens on the compound-containing plate medium was compared with that of pathogens on a plate medium where no compound was added, and mycelial growth inhibition rate was calculated as in Experiment Example 10. Note that, in Experiment Example 11, controls used in the antifungal effect tests are Compound (1-1a) and Compound (1-2a) instead of Compound (1-1b) and Compound (1-2b), respectively.\n(§3) The results were rated on a 1-to-5 scale as in Experiment Example 10."}, "Glomerella cingurata": {"test_system": "Glomerella cingurata", "assay": "Test 1 for antifungal effect, plate medium: G.c", "format": "cell-based", "details": "PDA plate medium", "experimental": "(§4) Compound (1-1a) or Compound (1-2a) was dissolved in dimethyl sulfoxide, and the resulting solution was added to a PDA medium (potato dextrose-agar medium) at about 60° C. The medium and the solution were mixed thoroughly in a conical flask, poured into a petri dish, and allowed to solidify. In this way, a plate medium containing Compound (1-1a) or Compound (1-2a) at a certain concentration was prepared.\n(§5) Meanwhile, test microorganisms cultured on a plate medium in advance were cut out with the use of a cork borer 4 mm in diameter, and were inoculated onto the compound-containing plate medium. After the inoculation, the microorganisms were cultured at their optimum growth temperatures (for example, refer to LIST OF CULTURES 1996 microorganisms 10th edition, Institute for Fermentation (foundation)) for 1 day to 7 days, and their growth was determined by measuring the diameter of their flora. The extent of growth of the microorganisms on the compound-containing plate medium was compared with that of microorganisms on a plate medium where no compound was added, and mycelial growth inhibition rate was calculated by the following equation: R=100(dc−dt)/dc where R is mycelial growth inhibition rate (%), dc is the flora diameter in untreated plate, and dt is the flora diameter in plate treated with the compound.\n(§6) A larger antifungal index indicates a better antifungal effect."}, "Botrytis cinerea": {"test_system": "Botrytis cinerea", "assay": "Test 1 for antifungal effect, plate medium: B.c", "format": "cell-based", "details": "PDA plate medium", "experimental": "as §4, §5, §6"}, "wheat": {"test_system": "wheat", "assay": "Growth inhibition (adverse effects) of seed treatment on wheat seeds", "format": "in vivo", "details": "wheat, 20 days after sowing", "experimental": "A pot experiment was performed to evaluate the growth inhibition (adverse effects) caused by the seed treatment. Compound (1-1a) and Compound (1-2a), each of which was dissolved in DMSO to make up such a concentration that the seeds would be treated in treatment amount of 2 g to 200 g ai/100 kg seeds, were each applied to wheat seeds in a vial, and thereafter 8 wheat seeds were sowed in an 80-cm^2 pot. The pot was kept in a greenhouse with water supplied to its bottom. 20 days after the sowing, a growth measure of wheat was evaluated. A growth inhibition index was calculated based on the criteria shown by Table 10. In Table 10, a smaller growth inhibition index indicates a lesser adverse effect of growth inhibition caused by the treatment with the use of a plant disease controlling agent."}, "Puccinia recondita": {"test_system": "Puccinia recondita", "assay": "Efficacy of seed treatment on wheat brown rust", "format": "in vivo", "details": "wheat seed treatment 20 g ai/100 kg seeds, 12 days after inoculation", "experimental": "A pot experiment was performed to evaluate the efficacy of seed treatment in controlling wheat leaf rust. Compound (1-1a) and Compound (1-2a), each of which was dissolved in DMSO to make up such a concentration that the seeds would be treated in treatment amount of 20 g ai/100 kg seeds, were each applied to wheat seeds in a vial, and thereafter 8 wheat seeds were sowed on an 80-cm^2 pot. The pot was kept in a greenhouse with water supplied to its bottom. 21 days after the sowing, the wheat seeds were inoculated with Puccinia recondita, and kept in a wet box for 2 days. After that, the pot was again kept in the greenhouse with water supplied to its bottom. 12 days after the inoculation, the percentage of affected area was found, and the protective value was calculated by the following equation. Protective value (%)=(1−(Percentage of affected area in treated region/Percentage of affected area in untreated region))×100"}, "Pyrenophora graminea": {"test_system": "Pyrenophora graminea", "assay": "Test 2 for antifungal effect, plate medium: P.g", "format": "cell-based", "details": "PDA plate medium", "experimental": "as §1, §2, §3"}, "Phaeosphaeria nodorum": {"test_system": "Phaeosphaeria nodorum", "assay": "Test 1 for antifungal effect, plate medium: P.n", "format": "cell-based", "details": "PDA plate medium", "experimental": "as §4, §5, §6"}, "Gibberella fujikuroi": {"test_system": "Gibberella fujikuroi", "assay": "Test 1 for antifungal effect, plate medium: G.f", "format": "cell-based", "details": "PDA plate medium", "experimental": "as §4, §5, §6"}, "Septoria tritici": {"test_system": "Septoria tritici", "assay": "Test 2 for antifungal effect, plate medium: S.t", "format": "cell-based", "details": "PDA plate medium", "experimental": "as §1, §2, §3"}}, "data": [{"smiles": "CC1(CCl)CCC(Cc2ccc(Cl)cc2)C1(O)Cn1cncn1", "note": "(single isomer, unassigned) [Compound (1-1b), (1,2-cis, 1,5-cis)-5-(4-chlorobenzyl)-2-chloromethyl-2-methyl-1-(1H-1,2,4-triazole-1-ylmethyl)cyclopentanol]", "values": [{"measurement": "Antifungal index (mycelial growth inhibition rate)", "setting": "Ustilago nuda; 0.04 mg/L", "value": "1 (Less than 60%)"}, {"measurement": "Antifungal index (mycelial growth inhibition rate)", "setting": "Ustilago nuda; 0.08 mg/L", "value": "1 (Less than 60%)"}, {"measurement": "Antifungal index (mycelial growth inhibition rate)", "setting": "Ustilago nuda; 0.16 mg/L", "value": "2 (Less than 70% but not less than 60%)"}, {"measurement": "Antifungal index (mycelial growth inhibition rate)", "setting": "Ustilago nuda; 0.31 mg/L", "value": "3 (Less than 80% but not less than 70%)"}, {"measurement": "Antifungal index (mycelial growth inhibition rate)", "setting": "Ustilago nuda; 0.63 mg/L", "value": "4 (Less than 90% but not less than 80%)"}, {"measurement": "Antifungal index (mycelial growth inhibition rate)", "setting": "Ustilago nuda; 1.25 mg/L", "value": "5 (90% or greater)"}, {"measurement": "Antifungal index (mycelial growth inhibition rate)", "setting": "Glomerella cingurata; 0.16 mg/L", "value": "2 (Less than 70% but not less than 60%)"}, {"measurement": "Antifungal index (mycelial growth inhibition rate)", "setting": "Glomerella cingurata; 0.31 mg/L", "value": "4 (Less than 90% but not less than 80%)"}, {"measurement": "Antifungal index (mycelial growth inhibition rate)", "setting": "Glomerella cingurata; 0.63 mg/L", "value": "5 (90% or greater)"}, {"measurement": "Antifungal index (mycelial growth inhibition rate)", "setting": "Glomerella cingurata; 1.25 mg/L", "value": "5 (90% or greater)"}, {"measurement": "Antifungal index (mycelial growth inhibition rate)", "setting": "Glomerella cingurata; 2.50 mg/L", "value": "5 (90% or greater)"}, {"measurement": "Antifungal index (mycelial growth inhibition rate)", "setting": "Botrytis cinerea; 0.16 mg/L", "value": "1 (Less than 60%)"}, {"measurement": "Antifungal index (mycelial growth inhibition rate)", "setting": "Botrytis cinerea; 0.31 mg/L", "value": "1 (Less than 60%)"}, {"measurement": "Antifungal index (mycelial growth inhibition rate)", "setting": "Botrytis cinerea; 0.63 mg/L", "value": "3 (Less than 80% but not less than 70%)"}, {"measurement": "Antifungal index (mycelial growth inhibition rate)", "setting": "Botrytis cinerea; 1.25 mg/L", "value": "4 (Less than 90% but not less than 80%)"}, {"measurement": "Antifungal index (mycelial growth inhibition rate)", "setting": "Botrytis cinerea; 2.50 mg/L", "value": "5 (90% or greater)"}, {"measurement": "Growth inhibition index", "setting": "wheat; treatment amount 2 g ai/100 kg seeds", "value": "0 (50% or more)"}, {"measurement": "Growth inhibition index", "setting": "wheat; treatment amount 20 g ai/100 kg seeds", "value": "4 (Less than 20% but 10% or more)"}, {"measurement": "Growth inhibition index", "setting": "wheat; treatment amount 200 g ai/100 kg seeds", "value": "4 (Less than 20% but 10% or more)"}, {"measurement": "Protective value (%)", "setting": "Puccinia recondita", "value": 63, "unit": "%"}, {"measurement": "Antifungal index (mycelial growth inhibition rate)", "setting": "Pyrenophora graminea; 0.04 mg/L", "value": "3 (Less than 80% but not less than 70%)"}, {"measurement": "Antifungal index (mycelial growth inhibition rate)", "setting": "Pyrenophora graminea; 0.08 mg/L", "value": "4 (Less than 90% but not less than 80%)"}, {"measurement": "Antifungal index (mycelial growth inhibition rate)", "setting": "Pyrenophora graminea; 0.16 mg/L", "value": "5 (90% or greater)"}, {"measurement": "Antifungal index (mycelial growth inhibition rate)", "setting": "Pyrenophora graminea; 0.31 mg/L", "value": "5 (90% or greater)"}, {"measurement": "Antifungal index (mycelial growth inhibition rate)", "setting": "Pyrenophora graminea; 0.63 mg/L", "value": "5 (90% or greater)"}, {"measurement": "Antifungal index (mycelial growth inhibition rate)", "setting": "Pyrenophora graminea; 1.25 mg/L", "value": "5 (90% or greater)"}, {"measurement": "Antifungal index (mycelial growth inhibition rate)", "setting": "Phaeosphaeria nodorum; 0.16 mg/L", "value": "2 (Less than 70% but not less than 60%)"}, {"measurement": "Antifungal index (mycelial growth inhibition rate)", "setting": "Phaeosphaeria nodorum; 0.31 mg/L", "value": "2 (Less than 70% but not less than 60%)"}, {"measurement": "Antifungal index (mycelial growth inhibition rate)", "setting": "Phaeosphaeria nodorum; 0.63 mg/L", "value": "2 (Less than 70% but not less than 60%)"}, {"measurement": "Antifungal index (mycelial growth inhibition rate)", "setting": "Phaeosphaeria nodorum; 1.25 mg/L", "value": "3 (Less than 80% but not less than 70%)"}, {"measurement": "Antifungal index (mycelial growth inhibition rate)", "setting": "Phaeosphaeria nodorum; 2.50 mg/L", "value": "5 (90% or greater)"}, {"measurement": "Antifungal index (mycelial growth inhibition rate)", "setting": "Gibberella fujikuroi; 0.16 mg/L", "value": "3 (Less than 80% but not less than 70%)"}, {"measurement": "Antifungal index (mycelial growth inhibition rate)", "setting": "Gibberella fujikuroi; 0.31 mg/L", "value": "4 (Less than 90% but not less than 80%)"}, {"measurement": "Antifungal index (mycelial growth inhibition rate)", "setting": "Gibberella fujikuroi; 0.63 mg/L", "value": "5 (90% or greater)"}, {"measurement": "Antifungal index (mycelial growth inhibition rate)", "setting": "Gibberella fujikuroi; 1.25 mg/L", "value": "5 (90% or greater)"}, {"measurement": "Antifungal index (mycelial growth inhibition rate)", "setting": "Gibberella fujikuroi; 2.50 mg/L", "value": "5 (90% or greater)"}, {"measurement": "Antifungal index (mycelial growth inhibition rate)", "setting": "Septoria tritici; 0.04 mg/L", "value": "1 (Less than 60%)"}, {"measurement": "Antifungal index (mycelial growth inhibition rate)", "setting": "Septoria tritici; 0.08 mg/L", "value": "1 (Less than 60%)"}, {"measurement": "Antifungal index (mycelial growth inhibition rate)", "setting": "Septoria tritici; 0.16 mg/L", "value": "1 (Less than 60%)"}, {"measurement": "Antifungal index (mycelial growth inhibition rate)", "setting": "Septoria tritici; 0.31 mg/L", "value": "3 (Less than 80% but not less than 70%)"}, {"measurement": "Antifungal index (mycelial growth inhibition rate)", "setting": "Septoria tritici; 0.63 mg/L", "value": "5 (90% or greater)"}, {"measurement": "Antifungal index (mycelial growth inhibition rate)", "setting": "Septoria tritici; 1.25 mg/L", "value": "5 (90% or greater)"}]}]}
